{"source": "paper PMC7421780", "about": "(Future Medicinal Chemistry, 2020)", "assay_in_all_cases": "microbe, parasite or virus in culture", "type_in_all_cases": "cell-based", "details_in_all_cases": "Mycobacterium tuberculosis", "key": {"[1]": {"system": "INH-R1 (Mtb strain resistant to isoniazid)"}, "[2]": {"system": "RIF-R2 (Mtb strain resistant to rifampicin)"}, "[3]": {"system": "INH-R2 (Mtb strain resistant to isoniazid)"}, "[4]": {"system": "RIF-R1 (Mtb strain resistant to rifampicin)"}, "[5]": {"system": "FQ-R1 (Mtb strain resistant to fluoroquinolone)"}}, "data": [{"compound": "O=[N+]([O-])c1cn(Cc2cccc(Cn3cnc([N+](=O)[O-])c3)n2)cn1", "note": "[Compound 2b, 2,6-bis((4-nitro-1H-imidazol-1-yl)methyl)pyridine]", "values": [{"measurement": "IC50", "setting": "[1]", "result": 68, "unit": "µM"}, {"measurement": "IC90", "setting": "[1]", "result": 90, "unit": "µM"}, {"measurement": "MIC", "setting": "[1]", "result": 98, "unit": "µM"}, {"measurement": "IC50", "setting": "[2]", "result": 38, "unit": "µM"}, {"measurement": "IC90", "setting": "[2]", "result": 61, "unit": "µM"}, {"measurement": "MIC", "setting": "[2]", "result": 68, "unit": "µM"}, {"measurement": "IC50", "setting": "[3]", "result": 24, "unit": "µM"}, {"measurement": "IC90", "setting": "[3]", "result": 28, "unit": "µM"}, {"measurement": "MIC", "setting": "[3]", "result": 28, "unit": "µM"}, {"measurement": "IC50", "setting": "[4]", "result": 60, "unit": "µM"}, {"measurement": "IC90", "setting": "[4]", "result": 160, "unit": "µM"}, {"measurement": "MIC", "setting": "[4]", "result": 111, "unit": "µM"}, {"measurement": "IC50", "setting": "[5]", "result": 66, "unit": "µM"}, {"measurement": "IC90", "setting": "[5]", "result": 92, "unit": "µM"}, {"measurement": "MIC", "setting": "[5]", "result": 102, "unit": "µM"}]}, {"compound": "O=C(C[n+]1ccn(Cc2cccc(Cn3cc[n+](CC(=O)c4ccc([N+](=O)[O-])cc4)c3)n2)c1)c1ccc([N+](=O)[O-])cc1.[Br-].[Br-]", "note": "[Compound 4f, 1,1′-(pyridine-2,6-diylbis(methylene))bis(3-(2-(4-nitrophenyl)-2-oxoethyl)-1H-imidazol-3-ium) bromide]", "values": [{"measurement": "IC50", "setting": "[1]", "result": 46, "unit": "µM"}, {"measurement": "IC90", "setting": "[1]", "result": 52, "unit": "µM"}, {"measurement": "MIC", "setting": "[1]", "result": 55, "unit": "µM"}, {"measurement": "IC50", "setting": "[2]", "result": 40, "unit": "µM"}, {"measurement": "IC90", "setting": "[2]", "result": 120, "unit": "µM"}, {"measurement": "MIC", "setting": "[2]", "result": "> 200", "unit": "µM"}, {"measurement": "IC50", "setting": "[3]", "result": 39, "unit": "µM"}, {"measurement": "IC90", "setting": "[3]", "result": 75, "unit": "µM"}, {"measurement": "MIC", "setting": "[3]", "result": 65, "unit": "µM"}, {"measurement": "IC50", "setting": "[4]", "result": 35, "unit": "µM"}, {"measurement": "IC90", "setting": "[4]", "result": 100, "unit": "µM"}, {"measurement": "MIC", "setting": "[4]", "result": 67, "unit": "µM"}, {"measurement": "IC50", "setting": "[5]", "result": 49, "unit": "µM"}, {"measurement": "IC90", "setting": "[5]", "result": 91, "unit": "µM"}, {"measurement": "MIC", "setting": "[5]", "result": 87, "unit": "µM"}]}, {"compound": "c1cc(Cn2cnc3ccccc32)nc(Cn2cnc3ccccc32)c1", "note": "[Compound 5, 2,6-bis((1H-benzo[d]imidazol-1-yl)methyl)pyridine]", "values": [{"measurement": "IC50", "setting": "[1]", "result": "> 50", "unit": "µM"}, {"measurement": "IC90", "setting": "[1]", "result": "> 50", "unit": "µM"}, {"measurement": "MIC", "setting": "[1]", "result": "> 50", "unit": "µM"}, {"measurement": "IC50", "setting": "[2]", "result": "> 50", "unit": "µM"}, {"measurement": "IC90", "setting": "[2]", "result": "> 50", "unit": "µM"}, {"measurement": "MIC", "setting": "[2]", "result": "> 50", "unit": "µM"}, {"measurement": "IC50", "setting": "[3]", "result": "> 50", "unit": "µM"}, {"measurement": "IC90", "setting": "[3]", "result": "> 50", "unit": "µM"}, {"measurement": "MIC", "setting": "[3]", "result": "> 50", "unit": "µM"}, {"measurement": "IC50", "setting": "[4]", "result": "> 50", "unit": "µM"}, {"measurement": "IC90", "setting": "[4]", "result": "> 50", "unit": "µM"}, {"measurement": "MIC", "setting": "[4]", "result": "> 50", "unit": "µM"}, {"measurement": "IC50", "setting": "[5]", "result": "> 50", "unit": "µM"}, {"measurement": "IC90", "setting": "[5]", "result": "> 50", "unit": "µM"}, {"measurement": "MIC", "setting": "[5]", "result": "> 50", "unit": "µM"}]}, {"compound": "O=C(C[n+]1cn(Cc2cccc(Cn3c[n+](CC(=O)c4ccccc4)c4ccccc43)n2)c2ccccc21)c1ccccc1.[Br-].[Br-]", "note": "[Compound 6c, 1,1′-(pyridine-2,6-diylbis(methylene))bis(3-(2-oxo-2-phenylethyl)-1H-benzo[d]imidazol-3-ium) bromide]", "values": [{"measurement": "IC50", "setting": "[1]", "result": 42, "unit": "µM"}, {"measurement": "IC90", "setting": "[1]", "result": 170, "unit": "µM"}, {"measurement": "MIC", "setting": "[1]", "result": 120, "unit": "µM"}, {"measurement": "IC50", "setting": "[2]", "result": 44, "unit": "µM"}, {"measurement": "IC90", "setting": "[2]", "result": 120, "unit": "µM"}, {"measurement": "MIC", "setting": "[2]", "result": 100, "unit": "µM"}, {"measurement": "IC50", "setting": "[3]", "result": 42, "unit": "µM"}, {"measurement": "IC90", "setting": "[3]", "result": 150, "unit": "µM"}, {"measurement": "MIC", "setting": "[3]", "result": 110, "unit": "µM"}, {"measurement": "IC50", "setting": "[4]", "result": 24, "unit": "µM"}, {"measurement": "IC90", "setting": "[4]", "result": 110, "unit": "µM"}, {"measurement": "MIC", "setting": "[4]", "result": 87, "unit": "µM"}, {"measurement": "IC50", "setting": "[5]", "result": 40, "unit": "µM"}, {"measurement": "IC90", "setting": "[5]", "result": "> 200", "unit": "µM"}, {"measurement": "MIC", "setting": "[5]", "result": 200, "unit": "µM"}]}, {"compound": "O=C(C[n+]1cn(Cc2cccc(Cn3c[n+](CC(=O)c4ccc([N+](=O)[O-])cc4)c4ccccc43)n2)c2ccccc21)c1ccc([N+](=O)[O-])cc1.[Br-].[Br-]", "note": "[Compound 6f, 1,1′-(pyridine-2,6-diylbis(methylene))bis(3-(2-(4-nitrophenyl)-2-oxoethyl)-1H-benzo[d]imidazol-3-ium) bromide]", "values": [{"measurement": "IC50", "setting": "[1]", "result": 13, "unit": "µM"}, {"measurement": "IC90", "setting": "[1]", "result": 21, "unit": "µM"}, {"measurement": "MIC", "setting": "[1]", "result": 24, "unit": "µM"}, {"measurement": "IC50", "setting": "[2]", "result": 17, "unit": "µM"}, {"measurement": "IC90", "setting": "[2]", "result": 31, "unit": "µM"}, {"measurement": "MIC", "setting": "[2]", "result": 30, "unit": "µM"}, {"measurement": "IC50", "setting": "[3]", "result": 13, "unit": "µM"}, {"measurement": "IC90", "setting": "[3]", "result": 22, "unit": "µM"}, {"measurement": "MIC", "setting": "[3]", "result": 25, "unit": "µM"}, {"measurement": "IC50", "setting": "[4]", "result": 15, "unit": "µM"}, {"measurement": "IC90", "setting": "[4]", "result": 24, "unit": "µM"}, {"measurement": "MIC", "setting": "[4]", "result": 25, "unit": "µM"}, {"measurement": "IC50", "setting": "[5]", "result": 18, "unit": "µM"}, {"measurement": "IC90", "setting": "[5]", "result": 38, "unit": "µM"}, {"measurement": "MIC", "setting": "[5]", "result": 38, "unit": "µM"}]}, {"compound": "C[C@H]1COc2c(N3CCN(C)CC3)c(F)cc3c(=O)c(C(=O)O)cn1c23", "note": "[Compound C3, Levofloxacin, reference compound]", "values": [{"measurement": "IC50", "setting": "[1]", "result": 0.64, "unit": "µM"}, {"measurement": "IC90", "setting": "[1]", "result": 1.4, "unit": "µM"}, {"measurement": "MIC", "setting": "[1]", "result": 1.2, "unit": "µM"}, {"measurement": "IC50", "setting": "[2]", "result": 0.6, "unit": "µM"}, {"measurement": "IC90", "setting": "[2]", "result": 1.2, "unit": "µM"}, {"measurement": "MIC", "setting": "[2]", "result": 1.1, "unit": "µM"}, {"measurement": "IC50", "setting": "[3]", "result": 0.84, "unit": "µM"}, {"measurement": "IC90", "setting": "[3]", "result": 1.4, "unit": "µM"}, {"measurement": "IC50", "setting": "[4]", "result": 0.59, "unit": "µM"}, {"measurement": "IC90", "setting": "[4]", "result": 0.91, "unit": "µM"}, {"measurement": "IC50", "setting": "[5]", "result": 12, "unit": "µM"}, {"measurement": "IC90", "setting": "[5]", "result": 22, "unit": "µM"}, {"measurement": "MIC", "setting": "[5]", "result": 20, "unit": "µM"}]}, {"compound": "NNC(=O)c1ccncc1", "note": "[Isoniazid, reference compound]", "values": [{"measurement": "IC50", "setting": "[1]", "result": "> 200", "unit": "µM"}, {"measurement": "IC90", "setting": "[1]", "result": "> 200", "unit": "µM"}, {"measurement": "MIC", "setting": "[1]", "result": "> 200", "unit": "µM"}, {"measurement": "IC50", "setting": "[2]", "result": 0.54, "unit": "µM"}, {"measurement": "IC90", "setting": "[2]", "result": 0.6, "unit": "µM"}, {"measurement": "MIC", "setting": "[2]", "result": 0.62, "unit": "µM"}, {"measurement": "IC50", "setting": "[3]", "result": "> 200", "unit": "µM"}, {"measurement": "IC90", "setting": "[3]", "result": "> 200", "unit": "µM"}, {"measurement": "MIC", "setting": "[3]", "result": "> 200", "unit": "µM"}, {"measurement": "IC50", "setting": "[4]", "result": 0.15, "unit": "µM"}, {"measurement": "IC90", "setting": "[4]", "result": 0.21, "unit": "µM"}, {"measurement": "MIC", "setting": "[4]", "result": 0.17, "unit": "µM"}, {"measurement": "IC50", "setting": "[5]", "result": 0.36, "unit": "µM"}, {"measurement": "IC90", "setting": "[5]", "result": 0.47, "unit": "µM"}, {"measurement": "MIC", "setting": "[5]", "result": 0.35, "unit": "µM"}]}, {"compound": "CO[C@H]1/C=C/O[C@@]2(C)Oc3c(C)c(O)c4c(O)c(c(/C=N/N5CCN(C)CC5)c(O)c4c3C2=O)NC(=O)/C(C)=C\\C=C\\[C@H](C)[C@H](O)[C@@H](C)[C@@H](O)[C@@H](C)[C@H](OC(C)=O)[C@@H]1C", "note": "[Rifampicin, reference compound]", "values": [{"measurement": "IC90", "setting": "[1]", "result": 0.022, "unit": "µM"}, {"measurement": "IC50", "setting": "[2]", "result": "> 50", "unit": "µM"}, {"measurement": "IC90", "setting": "[2]", "result": "> 50", "unit": "µM"}, {"measurement": "MIC", "setting": "[2]", "result": "> 50", "unit": "µM"}, {"measurement": "IC50", "setting": "[3]", "result": 0.0047, "unit": "µM"}, {"measurement": "IC90", "setting": "[3]", "result": 0.012, "unit": "µM"}, {"measurement": "MIC", "setting": "[3]", "result": 0.065, "unit": "µM"}, {"measurement": "IC50", "setting": "[4]", "result": 1.2, "unit": "µM"}, {"measurement": "IC90", "setting": "[4]", "result": 2.3, "unit": "µM"}, {"measurement": "IC50", "setting": "[5]", "result": 0.013, "unit": "µM"}, {"measurement": "IC90", "setting": "[5]", "result": 0.039, "unit": "µM"}, {"measurement": "MIC", "setting": "[5]", "result": 0.027, "unit": "µM"}]}]}
